Tests used:
Type in all cases: in vivo
[1] = tested on: VIOAR=Viola arvensis=weed; assay: Greenhouse trial, post-emergence action against weeds (test method 1); conditions: PO application, about 3 weeks after application
Protocol: (§1) In the standard design of the test, seeds of various broad-leaved weed and weed grass biotypes (origins) were sown in a 8-13 cm diameter pot filled with natural soil of a standard field soil (loamy silt; non-sterile) and covered with a covering soil layer of about 1 cm. The pots were then cultivated in a greenhouse (12-16 h of light, temperature day 20-22° C., night 15-18° C.) until the time of application. The pots were treated on a laboratory track sprayer with spray liquors comprising the compositions according to the invention, mixtures of the prior art or components used individually. Application of the active compounds or active compound combinations formulated as WG, WP, EC or otherwise was carried out at the appropriate growth stages of the plants. The application rate for the spray application was 100-600 l of water/ha. After the treatment, the plants were returned to the greenhouses.
(§2) About 3 weeks after the application, the soil action or/and foliar action was assessed visually according to a scale of 0-100% in comparison to an untreated comparative group: 0%=no noticeable effect compared to the untreated comparative group; 100%=full effect compared to the untreated comparative group.
(§3) (notes: the term “seeds” also includes vegetative propagation forms such as, for example, rhizome pieces; abbreviations used: h light=hours of illumination, g of AS/ha=gram of active substance per hectare, l/ha=liter per hectare, S=sensitive, R=resistant) • 1. Post-emergence action against weeds: seeds of various broad-leaved weed and weed grass biotypes (origins) were sown in a 8-13 cm diameter pot filled with natural soil of a standard field soil (loamy silt; non-sterile) and covered with a covering soil layer of about 1 cm. The pots were then cultivated in a greenhouse (12-16 h of light, temperature day 20-22° C., night 15-18° C.) until the time of application. The pots were treated at various BBCH stages between 11-25 of the seeds/plants, i.e. generally between two to three weeks after the start of the cultivation, on a laboratory track sprayer with spray liquors comprising the compositions according to the invention, mixtures or components used individually, as WG, WP, EC or other formulations. The application rate for the spray application was 100-600 l of water/ha. After the treatment, the plants were returned to the greenhouses and, when required, treated with fertilizer and watered. • 2. Selective post-emergence action: seeds of various crop species (origins) were sown in a 8-13 cm diameter pot filled with natural soil of a standard field soil (loamy silt; non-sterile) and covered with a covering soil layer of about 1 cm. The pots were then cultivated in a greenhouse (12-16 h of light, temperature day 20-22° C., night 15-18° C.) until the time of application. The pots were treated at various BBCH stages between 11-32 of the seeds/plants, i.e. generally between two to four weeks after the start of the cultivation, on a laboratory track sprayer with spray liquors comprising the compositions according to the invention, mixtures or components used individually, as WG, WP, EC or other formulations. The application rate for the spray application was 100-600 l of water/ha. After the treatment, the plants were returned to the greenhouses and, when required, treated with fertilizer and watered. The pots were cultivated in a greenhouse (12-16 h light, temperature day 20-22° C., night 15-18° C.).
(§4) Insofar as herbicidal effects of the compositions according to the invention compared to mixtures of the prior art or compared to components applied individually against economically important mono- and dicotyledonous harmful plants were the center of attention, the synergistic herbicidal activities were calculated using Colby's formula (cf. S. R. Colby; Weeds 15 (1967), 20-22): […]

[2] = tested on: APESV=Apera spica-venti=weed; assay: as above; conditions: PO application, about 3 weeks after application
Protocol: as §1, §2, §3, §4

[3] = tested on: HORVS=Hordeum vulgare, summer barley=crop plant; assay: Greenhouse trial, selective post-emergence action on crop (test method 2)
Protocol: as §1, §2
(notes: the term “seeds” also includes vegetative propagation forms such as, for example, rhizome pieces; abbreviations used: h light=hours of illumination, g of AS/ha=gram of active substance per hectare, l/ha=liter per hectare, S=sensitive, R=resistant) • 1. […]
as §4

CC(Oc1ccc(Oc2ccc(Cl)cc2Cl)cc1)C(=O)O (racemic) [(B) diclofop, (±)-2-[4-(2,4-dichlorophenoxy)phenoxy]propanoic acid]
activity on VIOAR, visual scale 0-100% vs untreated ([1]; 378 g of AS/ha): 0%
activity on APESV, visual scale 0-100% vs untreated ([2]; 378 g of AS/ha): 0%
activity (crop damage) on HORVS, visual scale 0-100% vs untreated ([3]; PO application, 378 g of AS/ha, about 3 weeks after application, greenhouse): 20%

CC(C)N(C(=O)COc1nnc(C(F)(F)F)s1)c1ccc(F)cc1 [(A) flufenacet, N-(4-fluorophenyl)-N-(1-methylethyl)-2-[[5-(trifluoromethyl)-1,3,4-thiadiazol-2-yl]oxy]acetamide]
activity on VIOAR, visual scale 0-100% vs untreated ([1]; 120 g of AS/ha): 40%
activity on APESV, visual scale 0-100% vs untreated ([2]; 120 g of AS/ha): 60%
activity (crop damage) on HORVS, visual scale 0-100% vs untreated ([3]; Hordeum vulgare (summer barley), in vivo, po): 40%

CSc1nnc(C(C)(C)C)c(=O)n1N [(C) metribuzin, 4-amino-6-(1,1-dimethylethyl)-3-(methylthio)-1,2,4-triazin-5(4H)-one]
activity on VIOAR, visual scale 0-100% vs untreated ([1]; 140 g of AS/ha): 90%
activity on APESV, visual scale 0-100% vs untreated ([2]; 140 g of AS/ha): 79%
activity (crop damage) on HORVS, visual scale 0-100% vs untreated ([3]; PO application, 140 g of AS/ha, about 3 weeks after application, greenhouse): 70%

From patent US20110160059A1, “Herbicidal compositions comprising flufenacet” (Bayer CropScience AG, priority 2009, published 2011)
